According to patent US20190170731A1, “METHOD TO MEASURE RELATIVE UTILIZATION OF AEROBIC GLYCOLYSIS BY POSITIONAL ISOTOPIC DISCRIMINATION” (priority 2016, published 2019):

Assays:
Type in all cases: cell-based
MDA-MB-231 cells = test: [1-13C]glucose labeling and LC-MS measurement of relative glycolysis rate; settings: 10 μM KU-55933, MDA-MB-231 cells, 10 mM D-[1-13C]-glucose; samples at 1, 3 and 6 hours of labeling (as well as 9 hours, p<0.05)
Protocol: FIGS. 7A-B. A) Sub-confluent MDA-MB-231 cells were serum-starved overnight. Cells were washed with PBS and were then pre-treated with 10 μM KU-55933 (Halaby et al., 2008) for 30 minutes in the glucose- and serum-free medium. Fluorescently-tagged 2-NBDG (30 μg/ml) was then added for 30 minutes. Cells were treated with 100 nM insulin for another 45 minutes. Glucose Uptake was then measured following the manufacturer's instructions (Cayman Chemical). B) MDA-MB-231 cells were cultured in DMEM containing 10% FBS. After reaching […] confluent, cells were serum-starved overnight. Cells were then washed with PBS and incubated in serum- and glucose/pyruvate-free DMEM for 90 minutes. The labeling was initiated after replacing the medium with fresh serum- and glucose/pyruvate-free DMEM supplemented with 10 mM D-[1-^13C]-glucose ±10 μM KU-55933. […] 40 μL of medium was taken and diluted with 160 μL of methanol to precipitate the proteins. For LC-MS analysis, 2 μL of the supernatant were injected and analyzed with the Q-Exactive mass spec. The bar graph represents the average relative glycolysis rate ±SEM from 3 individual experiments (*p<0.05). […] These breast cancer cells were grown in DMEM supplemented with antibiotics and 10% fetal bovine serum. […] The relative rate of glycolysis for each cancer cell line was measured by the incorporation of [1-^13C]glucose into [3-^13C]lactate. […]

MDA-MB-453 = test: 2-NBDG glucose uptake assay; settings: MDA-MB-453, 100 nM insulin for 45 minutes, 30 μg/mL 2-NBDG
Protocol: (§1) FIG. 2. […] Sub-confluent cells were serum-starved overnight. Cells were then washed with PBS and cell culture medium was replaced with glucose- and serum-free medium. Fluorescently-tagged 2-NBDG (Cayman Chemical) was then added at a concentration of 30 μg/mL for 30 minutes. After addition of 2-NBDG, cells were treated with 100 nM insulin for another 45 minutes. Glucose uptake was then measured as described hereinbelow. The graph represents the averages of 2-NBDG glucose uptake ±SEM from 3 individual experiments (p<0.05).
(§2) Glucose uptake was analyzed using a 2-NBDG (2-deoxy-2-[(7-nitro-2,1,3-benzoxadiazol-4-yl)amino]-D-glucose, a fluorescently labeled 2-deoxyglucose) glucose uptake kit from Cayman Chemical. Briefly, cells were plated at 200,000 cells/well in a 24-well plate and allowed to grow to sub-confluency. Cells were then serum starved overnight. The next morning, cells were incubated in serum- and glucose-free medium for 30 minutes. Cells were then incubated with 30 μg/mL 2-NBDG for another 30 minutes. After incubation, cells were treated with 100 nM insulin for 45 minutes. Cells were then transferred to a clear-bottom black 96 cell plate. The plate was subjected to centrifugation at 400×g for 5 minutes. […] Signal intensity was measured with a Synergy 2 (BioTek) microplate reader at excitation/emission=485/535 nm.

MDA-MB-231 = test: 2-NBDG glucose uptake assay; settings: MDA-MB-231, 100 nM insulin for 45 minutes, 30 μg/mL 2-NBDG
Protocol: as §1, §2

Molecule	relative glycolysis rate ([1-13C]glucose to [3-13C]lactate) (MDA-MB-231 cells)	glucose uptake (2-NBDG) in response to insulin stimulation (MDA-MB-453)	glucose uptake (2-NBDG) in response to insulin stimulation (MDA-MB-231)
O=c1cc(-c2cccc3c2Sc2ccccc2S3)oc(N2CCOCC2)c1 [KU-55933]	significant inhibition of glycolysis rate	–	–
insulin	–	enhanced glucose uptake	enhanced glucose uptake
